Assay results taken from patent US12551576B2, “Chemiluminescent probes” (The General Hospital Corporation, priority 2020, dated 2026).
“And” between values parts separate entries of the source, which are not always exact repeats. Identical values can stand only once. “Also recorded” adds a separate entry of the source. Like-named read-outs stand apart in the source and are kept apart here.

How the values were obtained:
Aβ40 aggregates [1] = biological target: T1, Aβ40 aggregates (Homo sapiens, UniProt P05067); experiment: In vitro fluorescence spectral testing of ADLumin-1 with Aβ40 aggregates; assay type: binding
Target sequence in this assay (P05067 672-711 limits assumed): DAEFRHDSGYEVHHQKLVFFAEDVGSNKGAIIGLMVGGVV

Aβ40 aggregates [2] = biological target: T1, Aβ40 aggregates; experiment: In vitro chemiluminescence study with Aβ aggregates in PBS; assay type: binding
Target sequence in this assay (P05067 672-711 limits assumed): as above

[3] = biological target: Aβ aggregates in mouse brain homogenate (Homo sapiens, UniProt P05067); experiment: In vitro chemiluminescence study in brain homogenate; assay type: binding
Chain of Aβ aggregates in mouse brain homogenate (P05067 672-711 limits assumed): as above

[4] = Fluorescence and chemiluminescence spectral studies; assay type: physicochemical
Experimental: Materials and Methods: reagents used for the synthesis were purchased from Sigma-Aldrich and used without further purification. Column chromatography was performed on a glass column slurry-packed with silica gel (60 Å, […]; SiliCycle Inc.). Recombinant Aβ peptide (1-40/42) were purchased from rPeptide (A-1163-1). Aβ aggregates for in vitro studies were generated by slow stirring of Aβ40 in PBS buffer for 3 days at room temperature. ^1H and ^13C NMR spectra were recorded at 500 MHz and 125 MHz on Bruker spectrometers in CDCl3, CD3OD or DMSO-d6 solutions at room temperature with tetramethylsilane (TMS, δ=0) as an internal standard. Liquid chromatography-mass spectrometry (LC-MS) was performed using an Agilent 1200 Series apparatus with an LC/MSD trap and Daly conversion dynode detector with UV detection at 254 nm. Fluorescence measurements were carried out using an F-7100 fluorescence spectrophotometer (Hitachi). Transgenic female 5×FAD mice and age-matched wild-type female mice were purchased from Jackson Laboratory. All animal experiments were approved by the Institutional Animal Use and Care Committee at Massachusetts General Hospital. The IVIS Spectrum animal imaging system (PerkinElmer) was used for in vitro and in vivo imaging.
Fluorescence spectral studies: Normally, all chemiluminescent molecules are fluorescent. The excitation and emission spectra of ADLumin-X were recorded and the emission peak of ADLumin-1 was around 590 nm (FIG. 1D) in DMSO, which is considerably longer than most of the commercially available chemiluminescence probes. The emission of ADLumin-2 is longer than that of ADLumin-1, due to its additional double-bond. (the emission peak of ADLumin-2 was 20 nm longer). […] Based on this fact, ADLumin-1 was used throughout this example, due to its high QY.
Chemiluminescence spectral studies: ADLumin-1 is stable in PBS buffer and organic solvents, including acetonitrile, dichloromethane and methanol. […] Without being bound by any theory, it is believed that the luminescence was due to the auto-oxidation of ADLumin-1. Although the mechanism of chemiluminescence of IPO derivatives has been studied, the mechanism of auto-oxidation has been rarely explored. In the course of the experiments, ADLumin-1 emitted very strong luminescence in pure DMSO (FIG. 2b). Unexpectedly, if the ADLumin-1 DMSO solution was stirred, even stronger luminescence can be detected (3.4-fold in FIG. 2b). Without being bound by any theory, it is believed that the luminescence was related to oxygen levels in DMSO. […] However, the increasing-fold decreased with cycles (FIG. 2c). […] Since no ROS were added into the DMSO solution, it is reasonable to infer that the auto-oxidation of ADLumin-1 was oxygen-level dependent. It is worthy to note that green fluorescent protein and luciferase/luciferin also dependent on oxygen for their proper imaging functions.

[5] = ROS sensitivity of ADLumin-1; assay type: physicochemical; settings: H2O2, ClO4−, TBHP, KO2; compared to O2 bubbling
Experimental: Oxygen and ROS sensitivity of ADLumin-1: A 100.0 μL DMSO solution of ADLumin-1 (200.0 μM) was added to a well in a 96-well plate. One group was bubbled with oxygen for 5 seconds at different time points, and the control group was sealed without bubbling. Once the bubbling was over, the plate was subjected to chemiluminescence intensity recording with the IVIS system with the open filter setting (500 nm-840 nm). For ROS tests, A PBS solution (240 μL) was incubated in an Eppendorf tube. To each of above tubes, different ROS (H2O2 30 μL, […] 30 μL, TBHP 30 μL and KO2 30 μL) was added, respectively. Then, a solution of ADLumin-1 in DMSO (30 μL, 250.0 μM) was added. Finally, 100.0 μL of the resulting solution was transferred into a well of 96-well plate, and triplicated samples were prepared. Chemiluminescence images were obtained with an IVIS system under the open filter (500 nm-840 nm).

Aβ plaques = Aβ plaques (Homo sapiens, UniProt P05067); experiment: Ex vivo histological study; assay type: in vivo, 5×FAD mouse; settings: mouse sacrificed after two-photon imaging
Chain of Aβ plaques (P05067 672-713 limits assumed): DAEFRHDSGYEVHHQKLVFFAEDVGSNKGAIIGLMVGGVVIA
Experimental: The fresh brain tissue was fixed in 4% formaldehyde for 24 hours and transferred into 30% sucrose at 4° C. until the tissue sunk. Then the tissue was embedded in an OCT block, which was sectioned into 25-μm slice with a cryostat. Then the slice was covered with FluoroShield mounting medium (Abcam).

Aβ40 aggregates [6] = biological target: T1, Aβ40 aggregates; experiment: In vivo mimic demonstration of DAS-CRET; settings: FIG. 8E, subcutaneous injection in nude mouse
Experimental: After solutions were prepared, one female 8-month old nude mouse was anesthetized, and the left hind limb was subcutaneously injected with the first solution and the right hind limbs was subcutaneously injected with the second solution. The mouse was then placed into the IVIS imaging chamber and images were captured from the dorsal side and from the ventral side with the open filter (500 nm-840 nm) and specific filters.
Target sequence in this assay (P05067 672-711): as the sequence (P05067 672-711 limits assumed) above

PA-K = experiment: Chemiluminescence detection of model aggregates (PA-K); assay type: binding; settings: ADLumin-1 2.5 μM, PA-K 0.5 mg/ml
PA-E2 = experiment: Chemiluminescence detection of model aggregates (PA-E2 vs PA-E); assay type: binding
amylin = amylin (Homo sapiens, UniProt P10997); assay type: binding
Chain of amylin (P10997 34-70 limits assumed): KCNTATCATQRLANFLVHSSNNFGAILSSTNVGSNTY

Tau = experiment: Chemiluminescence with misfoldon aggregates in PBS (Tau); assay type: binding; settings: ADLumin-1 2.5 μM, Tau aggregates 2.5 μM
human serum albumin = human serum albumin (Homo sapiens, UniProt P02768); experiment: Aβ aggregates incubated with human serum albumin
Chain of human serum albumin (P02768 25-609): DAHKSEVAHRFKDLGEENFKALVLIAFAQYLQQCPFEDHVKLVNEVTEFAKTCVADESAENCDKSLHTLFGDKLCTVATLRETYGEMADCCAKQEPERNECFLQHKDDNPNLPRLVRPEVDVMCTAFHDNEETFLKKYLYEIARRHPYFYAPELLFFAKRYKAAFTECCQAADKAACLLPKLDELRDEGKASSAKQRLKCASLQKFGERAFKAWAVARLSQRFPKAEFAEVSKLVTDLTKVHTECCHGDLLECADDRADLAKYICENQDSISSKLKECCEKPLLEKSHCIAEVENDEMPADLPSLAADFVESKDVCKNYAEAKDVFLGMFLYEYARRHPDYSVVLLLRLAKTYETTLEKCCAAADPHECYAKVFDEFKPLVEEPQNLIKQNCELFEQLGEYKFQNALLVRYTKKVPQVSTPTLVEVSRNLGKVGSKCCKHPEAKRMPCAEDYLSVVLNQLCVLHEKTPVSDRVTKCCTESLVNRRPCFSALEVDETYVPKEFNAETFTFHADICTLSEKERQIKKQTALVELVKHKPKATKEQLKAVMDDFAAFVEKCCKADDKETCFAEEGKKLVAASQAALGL

Apolipoprotein A-I (APO) = Apolipoprotein A-I (APO) (Homo sapiens, UniProt P02647); experiment: Aβ aggregates incubated with APO
Chain of Apolipoprotein A-I (APO) (P02647 25-267): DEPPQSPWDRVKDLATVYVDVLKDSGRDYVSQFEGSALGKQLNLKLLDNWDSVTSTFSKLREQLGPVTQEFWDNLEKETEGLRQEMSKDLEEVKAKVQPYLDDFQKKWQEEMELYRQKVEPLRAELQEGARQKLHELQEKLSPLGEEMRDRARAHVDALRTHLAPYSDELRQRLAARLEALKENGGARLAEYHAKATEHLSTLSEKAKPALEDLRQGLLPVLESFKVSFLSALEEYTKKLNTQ

Transthyretin = Transthyretin (Homo sapiens, UniProt P02766); experiment: Aβ aggregates incubated with transthyretin
[7] = system: beta-sheet misfoldons in mixed HC and disease serum; design: species or system human
[8] = chemiluminescence / bioluminescence spectra

## Cc1nc2c[nH]c(/C=C/C=C/c3ccc(N(C)C)cc3)cn-2c1=O [ADLumin-1, 6-((1E,3E)-4-(4-(dimethylamino)phenyl)buta-1,3-dien-1-yl)-2-methylimidazo[1,2-a]pyrazin-3(7H)-one]
Aβ40 aggregates [1]
  fluorescence intensity increasing upon mixing with Aβs: 100 fold
  shift of fluorescence emission of the probe with Aβs: significant blue-shift
Aβ40 aggregates [2]; IVIS imaging system, open filter, 96-well plate
  chemiluminescence signal, wells with Aβs vs wells without Aβs: 104 fold
Aβ40 aggregates [2]; PBS buffer with 2% DMSO, at 540 nm
  chemiluminescence intensity increase upon incubation with Aβs: about 216 fold
Aβ40 aggregates [2]; in vitro, summary statement
  amplification of chemiluminescence intensity upon mixing with Aβs in vitro: 216 fold and > 200 fold
[3]
  Aβ concentration range with linear intensity increase: 0 to 12.5 µM
[3]; Aβ aggregates 12.5 μM
  chemiluminescence signal, Aβ group vs no Aβ: about 11.6 fold
[4]; PBS buffer and organic solvents, including acetonitrile, dichloromethane and methanol
  stability: stable
[4]; [8]
  emission peak (FWHM comparison): 540 nm
  full width at half-maximum (FWHM): 94 nm
[4]; in DMSO
  fluorescence emission peak: around 590 nm
[4]; in the presence of 10% DMSO
  chemiluminescence emission peak: around 540 nm
[5]
  chemiluminescence response towards ROS species: no significant changes; also recorded: considerably low; also recorded: relatively small
Aβ plaques
  brightness of plaques in brain slides: considerably bright
Aβ40 aggregates [6]
  SNR (ROI1/ROI2): > 2000 and 2189
PA-K
  chemiluminescence signal increase vs ADLumin-1 only in PBS: 2.49 fold
PA-E2
  chemiluminescence intensity PA-E2 group vs PA-E group: 4.39 fold
amylin
  largest chemiluminescence difference with aggregates: 4.20 fold
Tau
  largest chemiluminescence difference with aggregates: 7.02 fold
Human serum albumin
  difference between Aβ/albumin and albumin only group: no significant differences
Apolipoprotein A-I (APO)
  intensity Aβ/APO group vs control group: higher intensity
Transthyretin
  intensity Aβ/transthyretin group vs control group: higher intensity
[7]
  total signal of mixed group vs sum of 90% HC serum and 10% AD serum: 1.66 fold
[7]; 10% diabetes serum
  signal mixture of HC serum and disease serum vs HC serum: 3.34 fold
[7]; 10% multiple sclerosis serum
  signal mixture of HC serum and disease serum vs HC serum: 7.24 fold
[7]; 10% pulmonary fibrosis serum
  signal mixture of HC serum and disease serum vs HC serum: 4.60 fold
[7]; 10% rheumatoid arthritis serum
  signal mixture of HC serum and disease serum vs HC serum: 6.64 fold
[7]; 90% HC serum and 10% AD serum
  chemiluminescence signal mixed group vs 100% HC serum: 7.75 fold
